In patent US20080214845A1, “ANTIBACTERIAL 6'-MODIFIED 4,5-SUBSTITUTED AMINOGLYCOSIDE ANALOGS” (priority 2005, published 2008):
In brackets after ≈: the same amount, converted by molar mass.

Experiments:
[1] = tested on: Staphylococcus aureus (Smith strain ATCC 13709); test: Staphylococcus aureus mouse protection assay; assay type: in vivo; conditions: Staph conc. 10^6 IP in 10% mucin, treatments at 1 hour and 3 hour post infection
Protocol: Two of the novel aminoglycoside compounds of the invention were examined for their anitbacterial activity against staphylococcus aureus. The mice were infected IP with 0.5 ml […] staphylococcus aureus in 10% mucin. There were 10 mice in each treated group with treatments at 1 hour and 3 hour post infection. The Ibis compounds (IBIS00561085 R4═R5═CH3 and IBIS00561141 R4═H, R5═(CH2)2C6H5) were used at 75 mg/kg, 37.5 mg/kg, 18.8 mg/kg, 9.4 mg/kg, 4.7 mg/kg, 2.3 mg/kg, 1.17 mg/kg and 0.5 mg/kg. Amakacin, Paromomycin and Neomycin were used as the positive controls at concentration of 2 mg/kg, 1 mg/kg and 0.5 mg/kg.

[2] = tested on: E. coli S30 bacterial extract (pBest Luc luciferase transcription/translation); test: Coupled bacterial transcription/translation assay (T/T); assay type: biochemical; conditions: luciferase reporter, 35 minutes at 37° C., read-out: Trans/Trans IC50
Protocol: The DNA template, pBest Luc™ (Promega), is a plasmid containing a reporter gene for firefly luciferase fused to a strong tac promoter and ribosome binding site. Messenger RNA from 1 μg pBestLuc was transcribed and translated in E. coli S30 bacterial extract in the presence or absence of test compound. Compounds were tested in a black 96 well microtiter plate with an assay volume of […]. Each test well contained: 5 μL test compound, 13 μL S30 premix (Promega), 4 μL 10× complete amino acid mix (1 mM each), 5 μL E. coli S30 extract and 8 μL of 0.125 μg/μL pBest Luc™. The transcription/translation reaction was incubated for 35 minutes at 37° C. followed by detection of functional luciferase with the addition of 30 μL LucLite™ (Packard). Light output was quantitated on a Packard TopCount.

16S = test: Measurement of 16S Kd by FTICR mass spectrometry; assay type: binding
Protocol: (§1) Was performed according to the published report; […]-Lowery, […].; Mohan, […]. et al. Characterization of Low Affinity Complexes Between RNA and Small Molecules Using Electrospray Ionization Mass Spectrometry. J. Am. Chem. […] Screening is performed by measuring the formation of non-covalent complexes between a single ligand or ligand mixture and the appropriate RNA target, along with suitable control structured RNA target(s) simultaneously using a 9.4 T FT-ICR mass spectrometer as detector. Full experimental details of the assay have been described in related literature ([…]-Lowery, et al. in TrAC, Trends Anal. […] The abundances were integrated from the respective ions for free RNA and the ligand-RNA complex. […] The peak ratios are measured at each concentration, then a plot of complex/free RNA versus concentration of ligand added is fitted to a second (or higher) order binding polynomial to determine the KD.

E. Coli. = test: Minimum inhibitory concentration (MIC), E. coli; assay type: cell-based; conditions: range of concentration, 20-24 hours at 37° C., A595; for MIC: Escherichia coli
Protocol: (§2) The assays are carried out in 150 μL volume in duplicate in 96-well clear flat-bottom plates. The bacterial suspension from an overnight culture growth in appropriate medium is added to a solution of test compound in 2.5% DMSO in water. Final bacterial inoculum is approximately 10^2-10^3 CFU/well. The percentage growth of the bacteria in test wells relative to that observed for a control wells containing no compound is determined by measuring absorbance at 595 nm (A595) after 20-24 hours at 37° C. The MIC is determined as a range of concentration where complete inhibition of growth is observed at the higher concentration and bacterial cells are viable at the lower concentration. Both ampicillin and tetracycline are used as antibiotic positive controls in each screening assay.

18S = 18S Kd by FTICR mass spectrometry; assay type: binding
Protocol: as §1

S. Aureus = test: Minimum inhibitory concentration (MIC), S. aureus; assay type: cell-based; conditions: range of concentration, 20-24 hours at 37° C., A595; for MIC: Staphylococcus aureus
Protocol: as §2

Row | Compound | # Dead mice/Total mice in group ([1]; 0.5 mg/kg) | # Dead mice/Total mice in group ([1]; 1 mg/kg) | # Dead mice/Total mice in group ([1]; 2 mg/kg) | IC50 [2] [nM] | Kd (16S) [nM] | MIC E. Coli. (E. Coli.) [µM] | Kd (18S) [nM] | MIC S. Aureus (S. Aureus) [µM] | also measured
1 | NCC[C@H](O)C(=O)N[C@@H]1C[C@H](N)[C@@H](O[C@H]2O[C@H](CN)[C@@H](O)[C@H](O)[C@H]2O)[C@H](O)[C@H]1O[C@H]1O[C@H](CO)[C@@H](O)[C@H](N)[C@H]1O [Amikacin] | 8/10 (10% Mucin) | 10/10 (10% Mucin) | 8/10 (10% Mucin) | – | – | – | – | – | –
2 | CNC[C@H]1O[C@H](O[C@H]2[C@H](O[C@@H]3O[C@H](CO)[C@@H](O[C@H]4O[C@@H](CN)[C@@H](O)[C@H](O)[C@H]4N)[C@H]3O)[C@@H](O)[C@H](N)C[C@@H]2N)[C@H](N)[C@@H](O)[C@@H]1O [IBIS00560186] | – | – | – | 159 | 362 | 2 to 3 | 1160 | 2 to 3 | –
3 | NC[C@@H]1O[C@H](O[C@H]2[C@@H](O)[C@H](O[C@@H]3[C@@H](O)[C@H](N)C[C@H](N)[C@H]3O[C@H]3O[C@H](CNN)[C@@H](O)[C@H](O)[C@H]3N)O[C@@H]2CO)[C@H](N)[C@@H](O)[C@@H]1O [IBIS00560187] | – | – | – | 235 | 564 | 12 to 25 | 1660 | 3 to 6 | –
4 | CC(C)(C)OC(=O)NNC[C@H]1O[C@H](O[C@H]2[C@H](O[C@@H]3O[C@H](CO)[C@@H](O[C@H]4O[C@@H](CN)[C@@H](O)[C@H](O)[C@H]4N)[C@H]3O)[C@@H](O)[C@H](N)C[C@@H]2N)[C@H](N)[C@@H](O)[C@@H]1O [IBIS00561082] | – | – | – | 308 | 14.9 | 6 to 12 | 1350 | 12 to 25 | –
5 | CC(C)NC[C@H]1O[C@H](O[C@H]2[C@H](O[C@@H]3O[C@H](CO)[C@@H](O[C@H]4O[C@@H](CN)[C@@H](O)[C@H](O)[C@H]4N)[C@H]3O)[C@@H](O)[C@H](N)C[C@@H]2N)[C@H](N)[C@@H](O)[C@@H]1O [IBIS00561095] | – | – | – | 202 | 1180 | 2.5 to 5.0 | 1200 | 1.25 to 2.5 | –
6 | NCCCNC[C@H]1O[C@H](O[C@H]2[C@H](O[C@@H]3O[C@H](CO)[C@@H](O[C@H]4O[C@@H](CN)[C@@H](O)[C@H](O)[C@H]4N)[C@H]3O)[C@@H](O)[C@H](N)C[C@@H]2N)[C@H](N)[C@@H](O)[C@@H]1O [IBIS00561096] | – | – | – | 175 | 1590 | 2.5 to 5.0 | 1450 | 1.25 to 2.5 | –
7 | NCCCCNC[C@H]1O[C@H](O[C@H]2[C@H](O[C@@H]3O[C@H](CO)[C@@H](O[C@H]4O[C@@H](CN)[C@@H](O)[C@H](O)[C@H]4N)[C@H]3O)[C@@H](O)[C@H](N)C[C@@H]2N)[C@H](N)[C@@H](O)[C@@H]1O [IBIS00561140] | – | – | – | 32 | 6260 | – | 6020 | – | MIC (E. Coli.): 2.5 to 5 µM (≈ 1.71 to 3.43 µg/mL); MIC (S. Aureus): 10 to 20 µM (≈ 6.86 to 13.7 µg/mL)
8 | NCC1OC(OC2C(CO)OC(OC3C(O)C(N)CC(N)C3OC3OC(CNCCc4ccccc4)C(O)C(O)C3N)C2O)C(N)C(O)C1O (stereo not drawn) [IBIS00561141] | 7/10 (10% Mucin). | 0/10 (10% Mucin) | 0/10 (10% Mucin) | 200 | 496 | 1.25 to 2.5 | 2160 | 0.3125 to 0.625 | # Dead mice/Total mice in group ([1]; 4.5 mg/kg): 0/10 (10% Mucin); # Dead mice/Total mice in group ([1]; 9 mg/kg): 0/10 (10% Mucin); # Dead mice/Total mice in group ([1]; 18 mg/kg): 0/10 (10% Mucin); # Dead mice/Total mice in group ([1]; 37 mg/kg): 0/10 (10% Mucin); # Dead mice/Total mice in group ([1]; 75 mg/kg): 0/10 (10% Mucin)
9 | NC[C@@H]1O[C@H](O[C@H]2[C@@H](O)[C@H](O[C@@H]3[C@@H](O)[C@H](N)C[C@H](N)[C@H]3O[C@H]3O[C@H](CN4CCOCC4)[C@@H](O)[C@H](O)[C@H]3N)O[C@@H]2CO)[C@H](N)[C@@H](O)[C@@H]1O [IBIS00561142] | – | – | – | 349 | 3640 | – | 3000 | – | MIC (E. Coli.): 20 to 40 µM (≈ 13.7 to 27.4 µg/mL); MIC (S. Aureus): 10 to 20 µM (≈ 6.85 to 13.7 µg/mL)
10 | NC[C@@H]1O[C@H](O[C@H]2[C@@H](O)[C@H](O[C@@H]3[C@@H](O)[C@H](N)C[C@H](N)[C@H]3O[C@H]3O[C@H](CO)[C@@H](O)[C@H](O)[C@H]3N)O[C@@H]2CO)[C@H](N)[C@@H](O)[C@@H]1O [Paromomycin] | 10/10 (10% Mucin) | 10/10 (10% Mucin) | 9/10 (10% Mucin) | – | – | – | – | – | –
11 | Neomycin | 7/10 (10% Mucin) | 10/10 (10% Mucin) | 4/10 (10% Mucin) | – | – | – | – | – | –
